From patent US8124744B2, “Macrolide derivatives” (Taisho Pharmaceutical Co., Ltd., priority 2006, dated 2012) come the findings set out here.

The test system of one assay is pro MMP-9 protein. Kind of assay: Inhibitory activity against proMMP-9 protein production (TNF α-stimulated mouse peritoneal exudate cells, ELISA). The assay is classed as cell-based, C57BL/6J mice. Particulars: relative activity when the value of Comparative Agent 1 (IC50 = 10.04 ± 4.11 μM) is 10, on the increase of pro MMP-9 by TNF α 25 ng/ml, 24 hours, read-out: IC50 (μM)*. As for the experimental part:
(§1) To 7- to 9-week male C57BL/6J mice (purchased from CLEA Japan, Inc. or Japan SLC, Inc.), Zymosan A (SIGMA) derived from budding yeasts which is adjusted to be 1 mg/ml in a phosphate buffer solution (PBS, 10010-49, Invitrogen) was administered intraperitoneally at 1 ml per mouse to induce peritonitis. Three days later, filter-sterilized cell recovery buffer (2 mM EDTA, 0.5% bovine serum albumin, PBS, pH 7.4) was administered intraperitoneally at 5 ml per mouse to recover peritoneal exudata cells. The cells went through a cell strainer (70 μm nylon, FALCON) and were then washed twice with a Hanks solution (Invitrogen). The cells were suspended in 10% fetal calf serum-containing Dulbecco's modified Eagle's culture medium (Invitrogen). The suspension was seeded on a plate with 48 wells, after 6 hours, the culture medium was completely exchanged. After culturing for another 18 hours, test compounds were added at 0.02 to 20 μM of the final concentration. After 1 hour from the addition of the compounds, a tumor necrosis factor (TNF) α (R & D Systems) was added at 25 ng/ml of the final concentration, and 24 hours later, the culture supernatant was collected. The amount of pro MMP-9 protein in the supernatant was quantified by an enzyme-linked immunosorbent assay (ELISA) (R & D Systems), IC50 values of the test compounds on the increased amount by TNF α stimuli, were calculated by ORIGIN analysis software (trade name: OriginLab). In addition, minimal inhibitory concentration (MIC) of each test compounds (measured bacterium: Staphylococcus aureus ATCC29213) was measured. As a comparative agent […] A (clarithromycin) was used.
(In general: An ELISA detects its analyte on a solid surface through an enzyme-linked reagent.)

In assay [1] the test system is Staphylococcus aureus ATCC29213. Kind of assay: Minimal inhibitory concentration (MIC). Type of assay: cell-based. As for the experimental part:
as §1

In brackets after ≈: the same amount, converted by molar mass.

Regarding `CC[C@H]1OC(=O)[C@H](C)[C@@H](O[C@H]2C[C@@](C)(OC)[C@@H](O)[C@H](C)O2)[C@H](C)[C@@H](O[C@@H]2O[C@H](C)C[C@@H](N3CC[C@H](O)C3)[C@@H]2N(C)C)[C@@](C)(OC)C[C@@H](C)C(=O)[C@H](C)[C@@H](O)[C@]1(C)O` [Example 201, 3′-dedimethylamino-2′-deoxy-2′-dimethylamino-3′-((S)-3-hydroxypyrrolidin-1-yl)-6-O-methylerythromycin A], the half-inhibitory concentration (IC50) – broadly, the midpoint of a concentration-inhibition curve – in the assay with pro MMP-9 protein was 4.45 µM. In addition, the minimum inhibitory concentration (MIC) (commonly the lowest concentration found to suppress growth) in assay [1] is greater than 128 µg/mL. Taken in the same sequence, the figures for `CC[C@H]1OC(=O)[C@H](C)[C@@H](O[C@H]2C[C@@](C)(OC)[C@@H](OC(C)=O)[C@H](C)O2)[C@H](C)[C@@H](O[C@@H]2O[C@H](C)C[C@@H](N3CCOCC3)[C@@H]2N(C)C)[C@@](C)(OC)C[C@@H](C)C(=O)[C@H](C)[C@H]2NC(=O)O[C@@]21C` [Example 95, 4″-O-acetyl-11-amino-3′-dedimethylamino-11,2′-dideoxy-2′-dimethylamino-3′-(4-morpholino)-6-O-methylerythromycin A 11,12-cyclic carbamate] were 4.36 µM and greater than 128 µg/mL.

In the case of `CC[C@H]1OC(=O)[C@H](C)[C@@H](O[C@H]2C[C@@](C)(OC)[C@@H](OC(C)=O)[C@H](C)O2)[C@H](C)[C@@H](O[C@@H]2O[C@H](C)C[C@@H](N(C)Cc3ccccn3)[C@@H]2N(C)C)[C@@](C)(OC)C[C@@H](C)C(=O)[C@H](C)[C@@H](O)[C@]1(C)O` [Example 191, 4″-O-acetyl-3′-N-demethyl-2′-deoxy-2′-dimethylamino-3′-N-(2-pyridylmethyl)-6-O-methylerythromycin A], in the assay with pro MMP-9 protein, the 50% inhibitory concentration (IC50) amounted to 1.42 µM. The MIC in assay [1] worked out at 128 µg/mL (≈ 143 µM). On the same counts, the results for `CC[C@H]1OC(=O)[C@H](C)[C@@H](O[C@H]2C[C@@](C)(OC)[C@@H](O)[C@H](C)O2)[C@H](C)[C@@H](O[C@@H]2O[C@H](C)C[C@H](N(C)CCCN3CCOCC3)[C@H]2OC)[C@@](C)(OC)C[C@@H](C)C(=O)[C@H](C)[C@@H](O)[C@]1(C)O` [Example 131, 3′-N-demethyl-3′-N-(3-(4-morpholino)propyl)-6,2′-di-O-methylerythromycin A] are 3.33 µM and greater than 128 µg/mL. On the same counts, the results for `CC[C@H]1OC(=O)[C@H](C)[C@@H](O)[C@H](C)[C@@H](O[C@@H]2O[C@H](C)C[C@H](N(C)Cc3ccccc3)[C@H]2O)[C@@](C)(O)C[C@@H](C)CN(C)[C@H](C)[C@@H](O)[C@]1(C)O` [Example 20, 5-O-(3′-N-demethyl-3′-N-benzyl)desosaminyl-9-deoxo-9a-aza-9a-methyl-9a-homoerythronolide A] are 0.83 µM and greater than 128 µg/mL. For `CC[C@H]1OC(=O)[C@H](C)[C@@H](O[C@H]2C[C@@](C)(OC)[C@@H](OC(C)=O)[C@H](C)O2)[C@H](C)[C@@H](O[C@@H]2O[C@H](C)C[C@@H](N(C)CCCc3ccncc3)[C@@H]2N(C)C)[C@@](C)(OC)C[C@@H](C)C(=O)[C@H](C)[C@@H](O)[C@]1(C)O` [Example 162, 4″-O-acetyl-3′-N-demethyl-2′-deoxy-2′-dimethylamino-3′-N-(3-(4-pyridyl)propyl)-6-O-methylerythromycin A], in the assay on pro MMP-9 protein, the IC50 is less than 1.5 µM. The compound further showed an MIC in assay [1] greater than 128 µg/mL. Taken in the same sequence, the figures for `CC[C@H]1OC(=O)[C@H](C)[C@@H](O[C@H]2C[C@@](C)(OC)[C@@H](O)[C@H](C)O2)[C@H](C)[C@@H](O[C@@H]2O[C@H](C)C[C@H](N(C)C)[C@H]2OC)[C@@](C)(OC)C[C@@H](C)C(=O)[C@H](C)[C@@H](O)[C@]1(C)O` [Example 31, 6,2′-di-O-methylerythromycin A] were 4.08 µM and greater than 128 µg/mL. On the same counts, the results for `CC[C@H]1OC(=O)[C@H](C)[C@@H](O[C@H]2C[C@@](C)(OC)[C@@H](O)[C@H](C)O2)[C@H](C)[C@@H](O[C@@H]2O[C@H](C)C[C@@H](N(C)CCc3ccccc3)[C@@H]2N(C)C)[C@@](C)(OC)C[C@@H](C)C(=O)[C@H](C)[C@@H](O)[C@]1(C)O` [Example 194, 3′-N-demethyl-2′-deoxy-2′-dimethylamino-3′-N-(2-phenethyl)-6-O-methylerythromycin A] are 1.23 µM and greater than 128 µg/mL.

On to `CC[C@H]1OC(=O)[C@H](C)[C@@H](O[C@H]2C[C@@](C)(OC)[C@@H](OC(C)=O)[C@H](C)O2)[C@H](C)[C@@H](O[C@@H]2O[C@H](C)C[C@@H](N3CCOCC3)[C@@H]2N(C)CCN(C)C)[C@@](C)(OC)C[C@@H](C)C(=O)[C@H](C)[C@@H](O)[C@]1(C)O` [Example 215], for which the IC50 with pro MMP-9 protein came to 1.21 µM. In assay [1], this compound had a minimum inhibitory concentration (MIC) greater than 128 µg/mL.

As for `CC[C@H]1OC(=O)[C@H](C)[C@@H](O[C@H]2C[C@@](C)(OC)[C@@H](OC(C)=O)[C@H](C)O2)[C@H](C)[C@@H](O[C@@H]2O[C@H](C)C[C@H](N(C)CCCOC(C)=O)[C@H]2OC)[C@@](C)(OC)C[C@@H](C)C(=O)[C@H](C)[C@@H](O)[C@]1(C)O` [Example 136, 4″-O-acetyl-3′-N-demethyl-3′-N-(3-acetoxypropyl)-6,2′-di-O-methylerythromycin A], the half-inhibitory concentration (IC50) in the assay on pro MMP-9 protein amounted to 2.12 µM. In assay [1], the MIC is greater than 128 µg/mL.

Turning to `CC[C@H]1OC(=O)[C@H](C)[C@@H](O[C@H]2C[C@@](C)(OC)[C@@H](O)[C@H](C)O2)[C@H](C)[C@@H](O[C@@H]2O[C@H](C)C[C@@H](N3CCOCC3)[C@@H]2N(C)CCN(C)C)[C@@](C)(OC)C[C@@H](C)C(=O)[C@H](C)[C@@H](O)[C@]1(C)O` [Example 216], in the assay on pro MMP-9 protein, the 50% inhibitory concentration (IC50) is 2.55 µM. Also, in assay [1], the MIC is greater than 128 µg/mL.

Regarding `CC[C@H]1OC(=O)[C@H](C)[C@@H](O[C@H]2C[C@@](C)(OC)[C@@H](OC(C)=O)[C@H](C)O2)[C@H](C)[C@@H](O[C@@H]2O[C@H](C)C[C@@H](N(C)CCCO)[C@@H]2N(C)C)[C@@](C)(OC)C[C@@H](C)C(=O)[C@H](C)[C@@H](O)[C@]1(C)O` [Example 198, 4″-O-acetyl-3′-N-demethyl-2′-deoxy-2′-dimethylamino-3′-N-(3-hydroxypropyl)-6-O-methylerythromycin A], in the assay on pro MMP-9 protein, the IC50 was 2.88 µM. The compound also displayed an MIC in assay [1] greater than 128 µg/mL.

Regarding `CC[C@H]1OC(=O)[C@H](C)[C@@H](O[C@H]2C[C@@](C)(OC)[C@@H](OC(C)=O)[C@H](C)O2)[C@H](C)[C@@H](O[C@@H]2O[C@H](C)C[C@@H](N3CCOCC3)[C@@H]2N(C)C)[C@@](C)(OC)C[C@@H](C)C(=O)[C@H](C)[C@@H](O)[C@H]1C` [Example 209, 4″-O-acetyl-3′-dedimethylamino-2′-deoxy-2′-dimethylamino-3′-(4-morpholino)-6-O-methylerythromycin B], the half-inhibitory concentration (IC50) with pro MMP-9 protein was 3.47 µM. The compound also came in with an MIC in assay [1] greater than 128 µg/mL. On the same counts, the results for `CC[C@H]1OC(=O)[C@H](C)[C@@H](O[C@H]2C[C@@](C)(OC)[C@@H](OC(C)=O)[C@H](C)O2)[C@H](C)[C@@H](O[C@@H]2O[C@H](C)C[C@@H](N(C)S(C)(=O)=O)[C@@H]2N(C)C)[C@@](C)(OC)C[C@@H](C)C(=O)[C@H](C)[C@@H](O)[C@]1(C)O` [Example 185, 4″-O-acetyl-3′-N-demethyl-2′-deoxy-2′-dimethylamino-3′-N-methanesulfonyl-6-O-methylerythromycin A] are 2.4 µM and greater than 128 µg/mL.

Consider `CC[C@H]1OC(=O)[C@H](C)[C@@H](O[C@H]2C[C@@](C)(OC)[C@@H](OC(C)=O)[C@H](C)O2)[C@H](C)[C@@H](O[C@@H]2O[C@H](C)C[C@H](N(C)C)[C@H]2OC)[C@@](C)(OC)C[C@@H](C)[C@H](OC(=O)CCN(C)C)[C@H](C)[C@@H](O)[C@]1(C)O` [Compound V of Example 147, 4″-O-acetyl-9-deoxo-9-(S)-(3-dimethylaminopropionyloxy)-6,2′-di-O-methylerythromycin A], for which the IC50 with pro MMP-9 protein amounted to 2.61 µM. The compound further returned an MIC in assay [1] greater than 128 µg/mL.

Consider `CC[C@H]1OC(=O)[C@H](C)[C@@H](O[C@H]2C[C@@](C)(OC)[C@@H](O)[C@H](C)O2)[C@H](C)[C@@H](O[C@@H]2O[C@H](C)C[C@@H](N(C)S(C)(=O)=O)[C@@H]2N(C)C)[C@@](C)(OC)C[C@@H](C)C(=O)[C@H](C)[C@@H](O)[C@]1(C)O` [Example 186, 3′-N-demethyl-2′-deoxy-2′-dimethylamino-3′-N-methanesulfonyl-6-O-methylerythromycin A], for which, in the assay on pro MMP-9 protein, the IC50 was determined as 4.01 µM. In assay [1], this compound returned a minimal inhibitory concentration (MIC) greater than 128 µg/mL. Regarding `CC[C@H]1OC(=O)[C@H](C)[C@@H](O)[C@H](C)[C@@H](O[C@@H]2O[C@H](C)C[C@H](N(C)Cc3cccc(OC)c3)[C@H]2O)[C@@](C)(OC)C[C@@H](C)C(=O)[C@H](C)[C@H]2NC(=O)O[C@@]21C` [Example 65, 11-amino-11-deoxy-5-O-(3′-N-demethyl-3′-N-(3-methoxybenzyl)desosaminyl)-6-O-methylerythronolide A 11,12-cyclic carbamate], the IC50 with pro MMP-9 protein was found to be 1.37 µM.
